Source: patent publication US20210161855A1, “5-LIPOXYGENASE ANTAGONISTS” (INSTITUTO DE MEDICINA MOLECULAR JOÃO LOBO ANTUNES, priority 2017, published 2021)
In brackets after ≈: the same amount, converted by molar mass.

Tests used:
[1] = target: T1, 12-LO (Homo sapiens, UniProt P18054); test: 12-LO inhibition in intact human neutrophils; assay type: cell-based; details: without DTT
T1 construct: endogenous in cells; host or cells: human blood neutrophil preparation
T1 sequence (P18054 1-663): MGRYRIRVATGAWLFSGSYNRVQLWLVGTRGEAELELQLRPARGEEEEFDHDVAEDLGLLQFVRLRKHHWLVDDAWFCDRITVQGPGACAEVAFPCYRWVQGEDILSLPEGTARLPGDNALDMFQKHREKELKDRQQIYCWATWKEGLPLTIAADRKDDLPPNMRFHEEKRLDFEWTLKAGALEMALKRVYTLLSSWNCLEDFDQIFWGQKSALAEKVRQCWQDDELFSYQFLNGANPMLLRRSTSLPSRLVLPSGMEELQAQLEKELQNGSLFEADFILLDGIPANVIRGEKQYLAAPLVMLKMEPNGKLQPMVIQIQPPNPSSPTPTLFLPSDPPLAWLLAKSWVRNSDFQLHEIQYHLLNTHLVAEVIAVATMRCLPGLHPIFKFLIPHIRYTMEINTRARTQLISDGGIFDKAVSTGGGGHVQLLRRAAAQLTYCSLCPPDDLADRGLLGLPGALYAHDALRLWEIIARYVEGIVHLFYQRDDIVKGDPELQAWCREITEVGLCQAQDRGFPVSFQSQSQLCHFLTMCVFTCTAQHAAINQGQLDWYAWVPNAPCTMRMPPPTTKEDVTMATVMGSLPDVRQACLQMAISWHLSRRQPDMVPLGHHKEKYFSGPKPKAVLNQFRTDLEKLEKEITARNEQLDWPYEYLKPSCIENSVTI
Experimental: (§1) Peripheral blood (University Hospital Jena, Germany) was withdrawn from healthy adult volunteers with consent that had not taken any anti-inflammatory drugs during the last 10 days, by venipuncture in heparinized tubes (16 IE heparin/mL blood). The blood was centrifuged at 4000 g for 20 min at 20° C. for preparation of leukocyte concentrates. Leukocyte concentrates were then subjected to dextran sedimentation and centrifugation on lymphocyte separation medium (LSM 1077, PAA, Colbe, Germany). Contaminating erythrocytes of pelleted neutrophils were removed by hypotonic Iysis. […] Method B. […] Cysteinyl-LTs C4, D4 and E4 were not detected (amounts were below detection limit), and oxidation products of LTB4 were not determined.

[2] = target: T2, EP3 (Homo sapiens, UniProt P43115); test: Prostanoid EP3 receptor antagonism, functional assay; assay type: cell-based; details: 150 μM
T2 sequence (P43115 1-390): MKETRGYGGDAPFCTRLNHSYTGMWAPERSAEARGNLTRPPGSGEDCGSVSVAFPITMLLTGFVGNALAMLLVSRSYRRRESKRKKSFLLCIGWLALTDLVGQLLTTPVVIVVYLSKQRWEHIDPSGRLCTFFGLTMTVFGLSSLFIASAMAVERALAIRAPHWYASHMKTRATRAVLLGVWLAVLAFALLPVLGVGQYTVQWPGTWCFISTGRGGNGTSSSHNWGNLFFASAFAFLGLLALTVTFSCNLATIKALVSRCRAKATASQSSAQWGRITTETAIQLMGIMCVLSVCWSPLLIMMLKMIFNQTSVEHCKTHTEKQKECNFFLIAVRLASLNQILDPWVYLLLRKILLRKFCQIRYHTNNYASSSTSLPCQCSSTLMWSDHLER

[3] = target: T3, 12-lipoxygenase (12-LO) (Homo sapiens, UniProt P18054); test: 12-LO inhibition assay, Method A (Cerep); assay type: biochemical
T3 sequence (P18054 1-663): T1 sequence (P18054 1-663)
Experimental: Method A: 5-Lipoxygenase (5-LO), 12-lipoxygenase (12-LO) and 15-lipoxygenase-2 (15-LO-2) inhibition assays were performed at Cerep, SA (Celle l'Evescault, France) on a fee-for-service basis (Ref 0772^36, 0883^37 and 0893^38, respectively), as described in Table 1.

[4] = system: Staphylococcus aureus ATCC 25923; test: MIC/MBC assay, S. aureus; assay type: cell-based
Experimental: Escherichia coli K12 and Staphylococcus aureus ATCC 25923 were grown overnight at 37° C. and re-inoculated in 24-well plates containing 2.5 mL of Luria Bertani medium (LB) to give an optical density of ˜0.01 at 600 nm. Stock solutions of β-lapachone, and lapachol were prepared in DMSO (1% final concentration) and added to the cell suspensions to obtain final concentrations between 5-210 μM. Wells containing a growth control (cell suspensions with 1% DMSO) and a sterile media control were also prepared. The plates were incubated for 18 h at 37° C. and 90 r.p.m. The concentration of compound in the first well in the series that presented no sign of visible growth was reported as the MIC. The OD600 of the cultures was also measured. All the MIC wells were serially diluted in phosphate buffer saline (PBS) and plated onto LB agar plates.

[5] = target: EP2 (Homo sapiens, UniProt P43116); test: Prostanoid EP2 receptor antagonism, functional assay; assay type: cell-based; details: 150 μM
Chain of EP2 (P43116 whole entry): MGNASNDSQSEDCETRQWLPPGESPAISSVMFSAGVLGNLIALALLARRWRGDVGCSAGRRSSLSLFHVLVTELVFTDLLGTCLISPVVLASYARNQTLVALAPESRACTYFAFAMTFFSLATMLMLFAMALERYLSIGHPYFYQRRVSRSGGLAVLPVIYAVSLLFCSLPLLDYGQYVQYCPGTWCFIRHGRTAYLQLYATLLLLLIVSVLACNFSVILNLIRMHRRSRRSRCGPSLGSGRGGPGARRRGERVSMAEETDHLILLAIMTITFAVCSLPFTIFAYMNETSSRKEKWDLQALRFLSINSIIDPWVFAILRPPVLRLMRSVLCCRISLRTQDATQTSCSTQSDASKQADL

[6] = system: 15-LO; test: 15-LO inhibition in intact human neutrophils; assay type: cell-based; details: without DTT
Experimental: as §1

Work on `CC1(C)CCC2=C(O1)c1ccccc1C(=O)C2=O` [Compound 1, 3,4-dihydro-2,2-dimethyl-2H-naphtho[1,2-b]pyran-5,6-dione] yielded an IC50 [1] greater than 30 µM, an EP3 antagonist effect [2] of 95% and an inhibition at 5 µM [3] of 38%. For the same compound, the MIC ([4]; ATCC25923, 18 h, read-out: Minimum inhibitory concentration) was 60 µM (≈ 14.5 µg/mL), the MBC ([4]; ATCC25923, read-out: Minimum bactericidal concentration) was greater than 200 µM and the EP2 antagonist effect [5] was 60%. It also gave an IC50 [6] greater than 30 µM.
